Measurements published in patent US20080146555A1, “Uses of Kinase Inhibitors and Compositions Thereof” (GPC Biotech, Inc, priority 2004, published 2008).
pIC50: −log10 of the molar value. Several values for one entry are separate records, joined by “and”; a condition that tells them apart may be missing. Equal values may be shown once. Where a name gives a salt, the structure may show the parent alone. Read-outs that look alike come from different tables or passages of the source.

Assays:
Abl (c-Abl) = biological target: T1, Abl (c-Abl) (Homo sapiens, UniProt P00519); assay: Abl kinase assay; format: biochemical
T1 construct: purchased Upstate 14-529
Experimental: • 1. 5× Reaction Buffer: 40 mM MOPS, pH 7.0, 1 mM EDTA. • 2. Enzyme Dilution Buffer (EDB): 20 mM MOPS, pH 7.0, 1 mM EDTA, 0.01% Brij-35, 5% glycerol, 0.1% β-mercaptoethanol, 1 mg/ml BSA. • 3. Abl, active: Dilute to 0.2-8 ng/μl with EDB. Use 2.5-μl per assay point. • 4. […] Use 2.5 μl per assay point for a final assay concentration of 50 μM per assay point. • 5. [γ-^32P]ATP: Stock 1 mCi/100 μl (3000 Ci/mmol, obtained from PerkinElmer, Cat. # BLU002A). Make 10 μl aliquots (100 μCi/vial).
• 1. Add 5 μl of 5× Reaction Buffer per assay. • 2. Add 2.5 μl of Abltide (50 μM). • 3. Add 2.5 μl of Abl (human), active (0.5-20 ng). • 4. Add 5 μl sterile, distilled water. • 5. Add 10 μl of the diluted [γ-^32P]ATP solution. • 6. Incubate for 10 minutes at 30° C. • 7. Transfer a 20 μl aliquot onto the center of a 2 cm×2 cm P81 paper. • 8. […] Wash the assay squares once for 5 minutes with acetone. • 10. Transfer the assay squares to vial and add 5 ml scintillation cocktail. • 11. Read in scintillation counter. Compare cpm of enzyme samples to cpm of control samples that contain background control.

panel of Ser/Thr kinases = assay: Kinase panel, Ser/Thr kinases (average); format: biochemical; settings: average over panel; for pIC50: read-out: average IC50 among non-CDK Ser/Thr kinases
Cdk2 = Cdk2 (Homo sapiens, UniProt P24941); assay: Cdk2 inhibition; format: biochemical
Source text: Further inhibition results for subject compounds of the invention against other CDKs and further kinases are shown in Table 5, Table II and described in Example 6.
Table 3, Table 4, Table 5 and Table II show the results obtained for inhibition of a broad range of such kinases for subject compounds of the invention.

panel of Tyr kinases = assay: Kinase panel, Tyr kinases (average); format: biochemical; settings: average over panel; read-out: average IC50 among Tyr kinases
NCI-Adr resistant = assay: SRB cytotoxicity, P-glycoprotein expressing cells with and without verapamil; format: cell-based; settings: for pIC50: Homo sapiens, NCI/ADR-RES, 72 h, SRB; for relative resistance, NCI-Adr resistant −/+ verapamil: individual experiments; for RR (relative resistance) NCI-Adr resistant −/+ verapamil: ratio of mean IC50
Experimental: In these experiments, the P-glycoprotein expressing NCI-Adr resistant subline (Vickers et al., 1989. Mol Endocrinology 3 (1):157-164) was used. […] Briefly, cells were plated in 96 well dishes 24 hours prior to compound addition. Where noted, they were exposed to verapamil for 4 hours prior to compound addition and then throughout the treatment period (72 hours). The assay was terminated with the addition of cold TCA to a final concentration of 10% and the plates were incubated for one hour at 4° C. The plates were then washed 5 times with water and 100 μl of a Sulforhodamine B solution (4%) was added to each well. The plate was then incubated for 10 minutes at room temperature before removal of unbound dye by washing with 1% acetic acid.

MKK6 = biological target: T2, MKK6 (Homo sapiens, UniProt P52564); assay: MKK6 kinase assay; format: biochemical
T2 construct: purchased Upstate 14-303
T2 sequence (P52564 1-334): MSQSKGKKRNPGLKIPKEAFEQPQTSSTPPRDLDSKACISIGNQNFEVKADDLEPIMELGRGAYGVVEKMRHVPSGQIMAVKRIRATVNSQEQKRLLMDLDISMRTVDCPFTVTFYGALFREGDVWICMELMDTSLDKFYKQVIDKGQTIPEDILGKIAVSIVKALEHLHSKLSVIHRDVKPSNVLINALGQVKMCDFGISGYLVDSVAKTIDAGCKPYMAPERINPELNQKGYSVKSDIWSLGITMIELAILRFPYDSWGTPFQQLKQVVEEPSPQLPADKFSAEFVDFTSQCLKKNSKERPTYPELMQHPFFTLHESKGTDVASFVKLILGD
Experimental: • 1. Reaction Buffer (RB): 50 mM Tris-HCl, pH 7.5, 0.1 mM EGTA, 0.1% 2-mercaptoethanol, 0.1 mM sodium orthovanadate, 10 mM MgAc. • 2. Magnesium/ATP Cocktail (Catalog #20-113): 500 μM cold ATP and 75 mM magnesium chloride in 20 mM MOPS, pH 7.2, 25 mM β-glycerol phosphate, 5 mM EGTA, 1 mM sodium orthovanadate, 1 mM dithiothreitol. • 3. MKK6/SKK3, active: Dilute to 10 ng/μl with Reaction Buffer containing 0.03% Brij-35. Use 5 μl (50 ng) per assay point. • 4. p38a/SAPK2a, unactive (Catalog #14-252): Use 4 μl per assay point. • 5. Myelin Basic Protein (MBP, Catalog #13-104): Prepare a 2 mg/ml stock solution in 20 mM MOPS, pH 7.2, 25 mM β-glycerol phosphate, 5 mM EGTA, 1 mM sodium orthovanadate, 1 mM dithiothreitol. Use 10 μl per assay point. • 6. [γ-^32P]ATP: Stock 1 mCi/100 μl (3000 Ci/mmol, obtained from Perkin Elmer, Catalog #BLU002A). Make 10 μl aliquots (100 μCi/vial). Before starting the assay, dilute the Magnesium/ATP Cocktail 1:1 with sterile, distilled water. Then dilute an aliquot of [γ-^32P]ATP to 1 μCi/μl with 90 μl of the diluted Magnesium/ATP Cocktail. […]
• 1. On ice, add 1 μl RB to a microcentrifuge tube. • 2. Add 4 μl (2 μg) p38α/SAPK2a, unactive. • 3. Add 10 μl of Magnesium/ATP Cocktail. • 4. Add 5 μl (50 ng) MKK6/SKK3, active. • 5. Incubate for 30 minutes shaking at 30° C. • 6. Place on ice and proceed to Stage Two.
• 1. Remove 10 μL of the mixture prepared in Stage One and add to a new microcentrifuge tube. • 2. Add 20 μl of RB. • 3. Add 10 μl of MBP. • 4. Add 10 μl of the diluted [γ-^32P] ATP mixture (1 μCi/μl). • 5. Incubate for 15 minutes shaking at 30° C. • 6. Spot 40 μl on a 2 cm×2 cm P81 paper. • 7. Wash assay squares three times with 0.75% phosphoric acid for 5 minutes per wash. • 8. Wash assay squares once with acetone for five minutes. • 9. Transfer the assay squares to a scintillation vial and add 5 ml scintillation cocktail. • 10. Read in scintillation counter. Compare cpm of enzyme samples to cpm of control samples that contain no active enzyme (background control).

[1] = Table II, read-out: ABL1 Inhibition (IC50)
[2] = read-out: Abl (wild-type c-Abl) IC50
[3] = kinase panel, 10 μM ATP, read-out: MAPK 6 / MKK6 IC50
[4] = read-out: MAP2K6 Inhibition (IC50)

T1 sequence (P00519 whole entry): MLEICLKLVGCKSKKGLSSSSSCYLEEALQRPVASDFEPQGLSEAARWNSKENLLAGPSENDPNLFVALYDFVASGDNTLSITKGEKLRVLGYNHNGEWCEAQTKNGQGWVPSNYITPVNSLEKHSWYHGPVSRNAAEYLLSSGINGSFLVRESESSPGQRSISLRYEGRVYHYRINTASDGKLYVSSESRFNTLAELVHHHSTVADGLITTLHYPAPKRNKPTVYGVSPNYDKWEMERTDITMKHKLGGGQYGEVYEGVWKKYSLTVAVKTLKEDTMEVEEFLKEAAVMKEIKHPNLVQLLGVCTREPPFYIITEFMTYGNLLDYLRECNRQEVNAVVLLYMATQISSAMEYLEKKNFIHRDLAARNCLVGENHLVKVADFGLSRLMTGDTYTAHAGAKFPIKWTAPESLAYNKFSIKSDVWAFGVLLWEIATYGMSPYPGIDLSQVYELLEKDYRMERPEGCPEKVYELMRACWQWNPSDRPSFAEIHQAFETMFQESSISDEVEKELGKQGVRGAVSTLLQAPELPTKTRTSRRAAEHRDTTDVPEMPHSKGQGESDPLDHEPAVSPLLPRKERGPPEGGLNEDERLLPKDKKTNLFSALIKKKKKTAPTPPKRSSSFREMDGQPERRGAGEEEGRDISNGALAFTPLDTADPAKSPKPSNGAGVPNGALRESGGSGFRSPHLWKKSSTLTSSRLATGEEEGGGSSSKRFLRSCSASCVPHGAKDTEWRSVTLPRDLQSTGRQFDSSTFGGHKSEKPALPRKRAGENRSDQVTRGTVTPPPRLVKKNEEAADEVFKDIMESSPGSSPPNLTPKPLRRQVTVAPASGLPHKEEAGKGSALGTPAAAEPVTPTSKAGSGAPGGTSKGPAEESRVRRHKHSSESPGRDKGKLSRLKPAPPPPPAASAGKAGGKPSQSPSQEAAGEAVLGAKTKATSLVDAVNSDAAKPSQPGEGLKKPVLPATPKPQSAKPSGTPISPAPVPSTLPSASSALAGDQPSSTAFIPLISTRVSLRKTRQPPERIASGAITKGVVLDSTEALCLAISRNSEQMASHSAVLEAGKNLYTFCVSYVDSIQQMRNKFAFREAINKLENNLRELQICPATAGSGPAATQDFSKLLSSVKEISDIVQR

CC(C)N1CCN(C(=O)COc2ccc(-c3n[nH]c4c3C(=O)c3c(NC(=O)NN5CCOCC5)cccc3-4)cc2)CC1 [Compound A37]
pIC50 (Abl (c-Abl); Table AA, read-out: Abl IC50): 7.46
pIC50 (Abl (c-Abl); [1]): > 7.30
pIC50 (Abl (c-Abl); [2]): > 7.30
average IC50 among non-CDK Ser/Thr kinases (panel of Ser/Thr kinases): about 29 nM
pIC50 (panel of Ser/Thr kinases): 7.36
pIC50 (Cdk2): > 7.30
pIC50 (panel of Tyr kinases): ~7.43 and 7.45
pIC50 (NCI-Adr resistant; verapamil 12.5 μg/ml): 6.87
pIC50 (NCI-Adr resistant; without verapamil): 5.46
relative resistance, NCI-Adr resistant −/+ verapamil (NCI-Adr resistant): about 25 fold
RR (relative resistance) NCI-Adr resistant −/+ verapamil (NCI-Adr resistant): 25.4
pIC50 (MKK6; [3]): 7.00 to 8.00
pIC50 (MKK6; [4]): > 6.30

COCCN1CCN(Cc2ccc(-c3n[nH]c4c3C(=O)c3c(NC(=O)NN5CCOCC5)cccc3-4)cc2)CC1 [Compound B16, N-[3-(4-{[4-(2-methoxyethyl)piperazinyl]methyl}phenyl)-4-oxoindeno[2,3-d]pyrazol-5-yl](morpholin-4-ylamino)carboxamide dihydrochloride]
pIC50 (Abl (c-Abl); Table AA, read-out: Abl IC50): 7.28
pIC50 (Abl (c-Abl); [1]): > 7.00
pIC50 (Abl (c-Abl); [2]): > 7.00
pIC50 (panel of Ser/Thr kinases): ~7.30
pIC50 (Cdk2): > 8.30
pIC50 (panel of Tyr kinases): ~7.26
pIC50 (NCI-Adr resistant; verapamil 12.5 μg/ml): 7.10
pIC50 (NCI-Adr resistant; without verapamil): 5.73
relative resistance, NCI-Adr resistant −/+ verapamil (NCI-Adr resistant): about 25 fold
RR (relative resistance) NCI-Adr resistant −/+ verapamil (NCI-Adr resistant): 23.4
pIC50 (MKK6; [3]): > 7.00
pIC50 (MKK6; [4]): > 7.00
